Experimental data taken from patent publication US4468403A, “Analgesic substituted piperidylidene-2-sulfon(cyan)amide derivatives” (priority 1982, dated 1984).
“Also recorded” adds a separate entry of the source. Read-outs that look alike come from different tables or passages of the source.

Experiments:
[1] = type: in vivo, male Swiss albino mice; details: for % Inhibn, control (single agent) in antagonist study: alone
Procedure: (§1) The percent change is calculated according to the following equation: % change=100- (no. of writhes in treated group/no. of writhes in control group)×100.

[2] = Analgesic antagonist testing against analgesic agonists of the W-1 to W-19 and 0-1 to 0-3 series, e.g. W-3 (phenylquinone writhing); type: in vivo, male Swiss albino mice
Procedure: as §1

[3] = Analgesic antagonist testing against morphine sulfate (phenylquinone writhing); type: in vivo, male Swiss albino mice
Procedure: as §1

O=S(=O)(N=C1CCCCN1CC1CC1)c1ccc(Cl)cc1 [Compound W-20, 1-Cyclopropylmethylpiperidylidene-2-(4-chlorophenyl)sulfonamide]
% Inhibn, control (single agent) in antagonist study ([1]; 0.5 mg/kg sc): 36%
% Inhibn, control (single agent) in antagonist study ([1]; 2.0 mg/kg sc): 46%
% Inhibn, control (single agent) in antagonist study ([1]; 10.0 mg/kg sc): 69%
Analgesic action, inhibition action on phenylquinone writhing: dose giving 50 % inhibition ([1]; subcutaneous, 30 min before phenyl-p-benzoquinone, dose with 50 % inhibition): 2.3 mg/kg
Analgesic action, inhibition action on phenylquinone writhing, % inhibition ([1]; subcutaneous, at the dose listed for the substance under E1): 50%
Antagonist activities, % inhibition of writhing with antagonist + agonist ([2]; Expt. 3: W-20 (0.5 mg/kg sc) 10 min before W-3 (2.0 mg/kg sc)): 53%
Antagonist activities, % inhibition of writhing with antagonist + agonist ([2]; Expt. 4: W-20 (2.0 mg/kg sc) 10 min before W-3 (2.0 mg/kg sc)): 49%
Block of agonist analgesic effect, in words ([2]; W-20 (0.5 mg/kg sc) vs W-3 (2.0 mg/kg sc)): partial block
Block of agonist analgesic effect, in words ([2]; W-20 (2.0 mg/kg sc) vs W-3 (2.0 mg/kg sc)): complete block; also recorded: completely blocks
Antagonist activities, % inhibition of writhing with antagonist + agonist ([3]; Expt. 1: W-20 (2.0 mg/kg sc) 10 min before MS (0.2 mg/kg sc)): 55%
Antagonist activities, % inhibition of writhing with antagonist + agonist ([3]; Expt. 2: W-20 (10.0 mg/kg sc) 10 min before MS (0.2 mg/kg sc)): 66%
Block of agonist analgesic effect, in words ([3]; W-20 (2.0 mg/kg sc) vs MS (0.2 mg/kg sc)): near complete block
Block of agonist analgesic effect, in words ([3]; W-20 (10.0 mg/kg sc) vs MS (0.2 mg/kg sc)): complete block; also recorded: completely blocks

C=CCN1CC[C@]23c4c5ccc(O)c4O[C@H]2C(=O)CC[C@@]3(O)[C@H]1C5 [Naloxone, reference compound]
Antagonist activities, % inhibition of writhing with antagonist + agonist ([2]; Expt. 5: Naloxone (1.0 mg/kg sc) before W-3 (5.0 mg/kg sc)): 45%
Block of agonist analgesic effect, in words ([2]; Naloxone (1.0 mg/kg sc) vs W-3 (5.0 mg/kg sc)): partial block; also recorded: partially blocks
Antagonist activity, in words ([2]; toward W-3, dose not given): acted as an antagonist toward W-3
